Values of other authors in patent US4834966A, “Pharmaceutical composition with analgesic activity” (priority 1986, dated 1989).

Assays:
[1] = background statement
[2] = system: gastrointestinal and oral mucosa; conditions: background statement

In the case of `CC(C)Cc1ccc(C(C)C(=O)[O-])cc1.[Na+]` (centres unmarked) [Ibuprofen sodium salt], the solubility in water [1] is given as “good solubility in water” and the “gastrointestinal effect of solution pH” value [2] is given as “gives solutions having a pH which produces gastrointestinal damages”.
